Assays:
tumor = experiment: anti-tumor activity (Assay Mean); assay type: cell-based
Source text: (§1) Initial results are shown in Table 2 for inhibition of protein biosynthesis (column 1), cytotoxicity (column 2), and anti-tumor activity (column 3) of tamandarin A, as compared to the related anti-tumor compound didemnin B. The results in Table 2 are given in units of concentration of the selected compound.

protein biosynthesis = experiment: inhibition of protein biosynthesis; assay type: biochemical; conditions: concentration of compound; read-out: Protein Synthesis (inhibition of protein biosynthesis)
Source text: as §1

pancreatic carcinoma = conditions: cited from earlier work
[1] = tested on: NCI-60 60 tumor cell line panel; experiment: cytotoxicity, NCI-60 tumor cell line panel mean; assay type: cell-based
Protocol: as §1
As used herein, “GI50” refers to the dose of a compound which is capable of producing 50% inhibition of cell growth. GI50 is assessed by comparing growth of cells to which a compound has been administered with growth of the same cells to which the compound has not been administered.
As used herein, “LC50” refers to the dose of a compound which is capable of producing 50% lethality in cells. LC50 is assessed by comparing death of cells in a population of cells to which a compound has been administered with the death of cells in a population of the same cells to which the compound has not been administered.
“NCI-60” refers to a 60 tumor cell line panel which from the National Cancer Institute (NCI, Frederick, MD). “NCI-60 Mean” is the average GI50 or LC50 for the panel treated with the selected compound.

| Compound | Anti-tumor activity (Assay Mean) (tumor) [nM] | IC50 (protein biosynthesis) [µM] | in vitro activity against pancreatic carcinoma compared with didemnin B (pancreatic carcinoma) | cytotoxicity compared with didemnin B ([1]; in vitro, assays of Table 2) | LC50 ([1]; mean over 60 tumor cell line panel, 50% lethality in cells) [µM] |
| --- | --- | --- | --- | --- | --- |
| CC[C@H](C)[C@H]1NC(=O)[C@@H](NC(=O)[C@@H](CC(C)C)N(C)C(=O)[C@@H]2CCCN2C(=O)C(C)O)[C@@H](C)OC(=O)[C@H](Cc2ccc(OC)cc2)N(C)C(=O)[C@@H]2CCCN2C(=O)[C@H](CC(C)C)NC(=O)[C@@H](C)C(=O)[C@H](C(C)C)OC(=O)C[C@@H]1O (stereo partly shown) [Didemnin B, reference compound] | 1.58 | 4 |  |  |  |
| tamandarin A | 1.31 | 1.3 | greater in vitro activity | significantly less cytotoxic | 4.8 |

Reference: patent US7122519B2, “Didemnin analogs and fragments and methods of making and using them” (priority 2000, dated 2006)
